# Reference: PMC13080230, “Zebrafish as a model for Catel–Manzke syndrome—identification and characterization of the zebrafish TGDS ortholog” (The Febs Journal, 2025)
# Numbering of substitutions follows the chain as printed.
# What was measured:
# zebrafish Tgds [1] = biological target: T1, zebrafish Tgds (Danio rerio, UniProt A0AC58JQE1, A89S); test: cycling assay of NAD+ tightly bound to the purified protein; assay type: binding; details: co-purified, tightly bound cofactor; protein from calculated extinction coefficient at 280 nm
# T1 construct: full coding region (347 residues) from ovary cDNA, pET-28a NdeI/XhoI, N-terminal 6xHis tag (cutting not mentioned), E. coli BL21 DE
# T1 sequence (A0AC58JQE1 1-347 A89S): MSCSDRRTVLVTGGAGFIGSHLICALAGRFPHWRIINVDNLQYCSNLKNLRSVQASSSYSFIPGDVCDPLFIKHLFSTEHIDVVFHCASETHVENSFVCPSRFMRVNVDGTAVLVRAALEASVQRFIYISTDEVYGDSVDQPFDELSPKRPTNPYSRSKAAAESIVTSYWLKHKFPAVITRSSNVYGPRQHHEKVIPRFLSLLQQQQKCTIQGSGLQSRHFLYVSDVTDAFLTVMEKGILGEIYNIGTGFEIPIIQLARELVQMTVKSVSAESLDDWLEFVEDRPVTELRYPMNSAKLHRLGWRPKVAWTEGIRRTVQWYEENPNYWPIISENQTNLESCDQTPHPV
# Description: (§1) cycling assay of NAD+ tightly bound to the purified protein on zebrafish Tgds
# zebrafish Tgds [2] = biological target: T2, zebrafish Tgds (Danio rerio, UniProt A0AC58JQE1); test: as above; assay type: binding; details: co-purified, tightly bound cofactor; protein from calculated extinction coefficient at 280 nm
# T2 construct: full coding region (347 residues) from ovary cDNA, pET-28a NdeI/XhoI, N-terminal 6xHis tag (cutting not mentioned), E. coli BL21 DE
# T2 sequence (A0AC58JQE1 1-347): T1 sequence (A0AC58JQE1 1-347 A89S) with S89A
# Description: as §1
# zebrafish Tgds [3] = biological target: T3, zebrafish Tgds (Danio rerio, UniProt A0AC58JQE1, E79G); test: as above; assay type: binding; details: co-purified, tightly bound cofactor; protein from calculated extinction coefficient at 280 nm
# T3 construct: full coding region (347 residues) from ovary cDNA, pET-28a NdeI/XhoI, N-terminal 6xHis tag (cutting not mentioned), E. coli BL21 DE
# T3 sequence (A0AC58JQE1 1-347 E79G): T1 sequence (A0AC58JQE1 1-347 A89S) with E79G, S89A
# Description: as §1
# zebrafish Tgds [4] = biological target: T4, zebrafish Tgds (Danio rerio, UniProt A0AC58JQE1, Y223H); test: as above; assay type: binding; details: co-purified, tightly bound cofactor; protein from calculated extinction coefficient at 280 nm
# T4 construct: full coding region (347 residues) from ovary cDNA, pET-28a NdeI/XhoI, N-terminal 6xHis tag (cutting not mentioned), E. coli BL21 DE
# T4 sequence (A0AC58JQE1 1-347 Y223H): T1 sequence (A0AC58JQE1 1-347 A89S) with S89A, Y223H
# Description: as §1
# zebrafish Tgds [5] = biological target: T2, zebrafish Tgds; test: anion exchange HPLC; assay type: biochemical; details: PBS pH 7.3, 30 °C
Structure (SMILES),NAD^+/protein molar ratio ^d (zebrafish Tgds [1]) [mol/mol],NAD^+/protein molar ratio ^d (zebrafish Tgds [2]) [mol/mol],NAD^+/protein molar ratio ^d (zebrafish Tgds [3]) [mol/mol],NAD^+/protein molar ratio ^d (zebrafish Tgds [4]) [mol/mol],anion exchange HPLC (zebrafish Tgds [5])
NC(=O)c1ccc[n+]([C@@H]2O[C@H](COP(=O)(O)OP(=O)(O)OC[C@H]3O[C@@H](n4cnc5c(N)ncnc54)[C@H](O)[C@@H]3O)[C@@H](O)[C@H]2O)c1 [NAD^+],0.39,0.55,0.16,0.04,
Cc1cn([C@H]2C[C@H](O)[C@@H](COP(=O)(O)OP(=O)(O)O[C@H]3O[C@H](CO)[C@@H](O)[C@H](O)[C@H]3O)O2)c(=O)[nH]c1=O [TDP‐D‐glucose],,,,,The enzyme exhibited lower activity with TDP‐D‐glucose
